Laboratory results from patent US5498632A, “Esters of acyl carnitines with long-chain aliphatic alcohols and pharmaceutical compositions containing same having antibacterial activity” (Sigma-Tau Industrie Farmaceutiche Riunite S.p.A., priority 1992, dated 1996).

Key:
[1] = Assessment of behaviour and mortality in mice (Irwin's method); set-up: species or system mouse (male Crl:(CD-1)(ICR)BR); details: mouse, in vivo; oral, dose 1000, 4 animals/dose
Method: (§1) The assessment of normal behaviour in mice was carried out following S. Irwin's method (Psychopharmacologia, 13, 222 [1968]). This method allows alterations in some behavioural, neurophysiologic and neurovegetative parameters to be detected, which are directly observable by the researcher. The study was conducted using male Crl:(CD-1)(ICR)BR mice (Charles River--Italy) weighing 22-25 g, following oral administration of the compounds suspended in carboxymethylcellulose (0.5% by weight in H2 O) to groups of 4 animals/dose.
(§2) The animals were continously kept under observation for five hours following treatment and twice a day in the subsequent five days. Mortality was also observed during the overall test period.

mice = test: as above; set-up: species or system mouse (male Crl:(CD-1)(ICR)BR); details: mouse, in vivo, po
Method: as §1, §2

Gram- bacterial strains = test: Mean MIC in broth and resistant strain number, Gram- strains; format: cell-based; details: 18 h, read-out: Mean MIC values
Method: (§3) MICs were determined by a standard microdilution test, using serial two-fold dilutions of the substances in Mueller-Hinton broth.
(§4) The inoculum was prepared from an overnight culture in Mueller-Hinton broth matching the 0.5 Mc Farland (turbidity) standard (BRAY W. E., Clinical Laboratory Methods, 5th Ed. C. V. MOSBY, St. Louis, Mo. 1957), and was adjusted to a final concentration of 5.0×10^4 colony-forming units/ml.
(§5) Equal volumes (0.1 ml) of both bacterial suspensions and substance solutions were distributed in microtiter plates (Falcon, 96 wells, round bottom), and then placed in a humidified incubator (37° C.) for 18 hours.
(§6) Evaluation of the Minimal Inhibitory Concentration (MIC) in broth of 16 new substances for Gram- bacterial strains.
(§7) The following strains were used: Enterobacter (1), Escherichia (3), Klebsiella (3), Proteus (3); Pseudomonas (2); Salmonella (2), Serratia (1).

[2] = system: Campylobacter jejuni 84-ISS; test: MIC in agar (agar dilution); format: cell-based
Method: (§8) In this experiment the activity of ST 722 and ST 712 against Campylobacter and Helicobacter was investigated.
(§9) Campylobacter fetus ATCC 27374, Campylobacter coli LI 048, Campylobacter jejuni 84-ISS, and Helicobacter pylori NCTC 11637.
(§10) The culture medium was Columbia agar base supplemented with 7% (V/V) defribinated horse blood (DHB) for Campylobacter strains, and the same medium additioned with Vitox (Oxoid) for Helicobacter strain.
(§11) The Campylobacter and Helicobacter strains, preserved at -80° C. in DHB containing 10% (V/V) glycerol, were thawed and grown, in their respective culture medium, in culture flasks, which were incubated for 48 hours at 37° C. in a 10% CO2 atmosphere. After this first growth cycle, the bacteria were allowed to go through a second growth cycle in the same conditions as above.
(§12) The bacterial "patina" was then harvested by resuspension in 4-5 ml of Mueller-Hinton broth, the turbidity of which was then assessed according to Mc Farland's criteria (BRAY W. E., Clinical Laboratory Methods, 5th Ed. C. V. MOSBY, St. Louis, Mo. 1957).
(§13) The Helicobacter suspension was adjusted to an approximate concentration of 1.0×10^9 and 1.0×10^8 organisms/ml, while the Campylobacter suspension was adjusted to 1.0×10^7 and 1.0×10^6 organisms/ml.
(§14) With a Steers-type multipoint inoculator (STEERS E., FOLTZ E. L., GRAVES S., RIDEN J., 1959. Inocula-replicating apparatus for routine testing of antibacterial susceptibility to antibiotics. Antibiot. Chemoter. 9: 307-311) 1-μl volumes of the above standardized suspensions were spot-transferred into the wells of a 96-well microtiter plate, which had previously been filled with 0.2 ml/well of Mueller-Hinton agar 5% DHB, containing the test substances at different concentrations.
(§15) The plates was then incubated for 48/72 hours at 37° C. in a 10% CO2 atmosphere.

[3] = system: Campylobacter fetus ATCC 27374; test: MIC in agar (agar dilution); format: cell-based
Method: as §8, §9, §10, §11, §12, §13, §14, §15

[4] = system: Campylobacter coli LI 048; test: MIC in agar (agar dilution); format: cell-based
Method: as §8, §9, §10, §11, §12, §13, §14, §15

[5] = system: Helicobacter pylori NCTC 11637; test: MIC in agar (agar dilution); format: cell-based
Method: as §8, §9, §10, §11
The bacterial "patina" was then harvested by resuspension in 4-5 ml of Mueller-Hinton broth, the turbidity of which was then assessed according to Mc Farland's criteria (BRAY W. E., Clinical Laboratory Methods, 5th Ed. C. V. MOSBY, St. Louis, Mo. 1957). […]
as §14, §15

[6] = system: Enterobacter aerogenes (UM); test: MIC in broth, Gram- strains; format: cell-based; details: Klebsiella aerogenes, 18 h, read-out: Minimal Inhibitory Concentration (MIC)
Method: as §3, §4, §5, §6, §7

[7] = system: Serratia marcescens (A/1); test: MIC in broth, Gram- strains; format: cell-based; details: 18 h, read-out: Minimal Inhibitory Concentration (MIC)
Method: as §3, §4, §5, §6, §7

Proteus mirabilis (32) = test: MIC in broth, Gram- strains; format: cell-based; details: 18 h, read-out: Minimal Inhibitory Concentration (MIC)
Method: as §3, §4, §5, §6, §7

Proteus vulgaris (UM) = test: MIC in broth, Gram- strains; format: cell-based; details: 18 h, read-out: Minimal Inhibitory Concentration (MIC)
Method: as §3, §4, §5, §6, §7

Escherichia coli (76 F) = test: MIC in broth, Gram- strains; format: cell-based; details: 18 h, E. coli (76 F), read-out: Minimal Inhibitory Concentration (MIC)
Method: as §3, §4, §5, §6, §7

Klebsiella oxytoca (552) = test: MIC in broth, Gram- strains; format: cell-based; details: 18 h, read-out: Minimal Inhibitory Concentration (MIC)
Method: as §3, §4, §5, §6, §7

Escherichia coli (92 F) = test: MIC in broth, Gram- strains; format: cell-based; details: 18 h, E. coli (92 F), read-out: Minimal Inhibitory Concentration (MIC)
Method: as §3, §4, §5, §6, §7

[8] = system: Salmonella typhimurium (D.S.); test: MIC in broth, Gram- strains; format: cell-based; details: Salmonella enterica, 18 h, read-out: Minimal Inhibitory Concentration (MIC)
Method: as §3, §4, §5, §6, §7

[9] = system: Pseudomonas aeruginosa (10 E); test: MIC in broth, Gram- strains; format: cell-based; details: 18 h, read-out: Minimal Inhibitory Concentration (MIC)
Method: as §3, §4, §5, §6, §7

[10] = system: Klebsiella pneumoniae (7823); test: MIC in broth, Gram- strains; format: cell-based; details: 18 h, read-out: Minimal Inhibitory Concentration (MIC)
Method: as §3, §4, §5, §6, §7

[11] = system: Pseudomonas aeruginosa (3 E); test: MIC in broth, Gram- strains; format: cell-based; details: 18 h, read-out: Minimal Inhibitory Concentration (MIC)
Method: as §3, §4, §5, §6, §7

[12] = system: 7 Gram- bacterial strains; test: Agar dilution test of undecyl alcohol; format: cell-based; details: emulsified in Tween 80, up to 300 mcg/ml
Method: (§16) To ascertain whether the antimicrobial activity was due to the undecyl alcohol (a possible product from the hydrolysis of the undecyl esters, such as e.g. ST 722 and ST 712), different "in vitro" tests were performed to overcome the difficulties stemming from the insolubility of the undecyl alcohol in the assay medium.
(§17) To circumvent this problem, three different experimental approaches were chosen obtaining the following results:
1) Undecyl alcohol emulsified in Tween 80 and tested up to the concentration of 300 mcg/ml in agar seeded with 7 Gram- bacterial strains (Agar dilution test).

[13] = system: 4 Gram- bacterial strains; test: Agar diffusion test of undecyl alcohol; format: cell-based; details: absolute (0.05 ml)
Method: as §16, §17
2) Undecyl alcohol absolute (0.05 ml) in agar seeded with 4 Gram- bacterial strains (Agar diffusion test).

[14] = system: 4 Gram- bacterial strains and 1 Gram+ bacterial strain; test: Broth dilution test of undecyl alcohol; format: cell-based; details: emulsified in Tween 80, up to 400 mcg/ml
Method: as §16, §17
3) Undecyl alcohol emulsified in Tween 80 and tested up to the concentration of 400 mcg/ml in broth seeded with 4 Gram- bacterial strains and 1 Gram+ bacterial strain (Broth dilution test).

SMILES: CCCCCCCCCCCOC(=O)CC(C[N+](C)(C)C)OC(=O)C(C)C [ST 712, Isobutyryl-L-Carnitine Undecyl Ester Chloride]
- mortality at 120 h [1]: 0%
- Symptoms (mice): NONE
- MIC (Gram- bacterial strains): 36.4 µg/mL
- MIC ([2]; I = inoculum of 1.0 × 10^3): 25 µg/mL
- MIC ([2]; II = inoculum of 1.0 × 10^4): 50 µg/mL
- MIC ([3]; Campylobacter fetus, ATCC27374, I = inoculum of 1.0 × 10^3): 100 µg/mL
- MIC in agar ([3]; II = inoculum of 1.0 × 10^4): 100 µg/mL
- MIC ([4]; Campylobacter coli, LI048, I = inoculum of 1.0 × 10^3): 6.25 µg/mL
- MIC in agar ([4]; II = inoculum of 1.0 × 10^4): 6.25 µg/mL
- MIC ([5]; Helicobacter pylori, NCTC11637, I = inoculum of 1.0 × 10^5 cells/ml, read-out: MIC in agar): 3.12 µg/mL
- MIC in agar ([5]; II = inoculum of 1.0 × 10^6 cells/ml): 3.12 µg/mL
- antibacterial activity for Helicobacter and Campylobacter ([5]; agar, Helicobacter and Campylobacter strains): possess an antibacterial activity
- MIC [6]: 25 µg/mL
- MIC [7]: 50 µg/mL
- MIC (Proteus mirabilis (32)): > 100 µg/mL
- MIC (Proteus vulgaris (UM)): 100 µg/mL
- MIC (Escherichia coli (76 F)): 25 µg/mL
- MIC (Klebsiella oxytoca (552)): 12.5 µg/mL
- MIC (Escherichia coli (92 F)): 25 µg/mL
- MIC [8]: 25 µg/mL
- MIC [9]: 50 µg/mL
- MIC [10]: 12.5 µg/mL
- MIC [11]: 50 µg/mL

SMILES: CCCCCCCCCCCO [Undecyl alcohol, undecyl alcohol]
- antibacterial activity [12]: no activity
- antibacterial activity [13]: no activity
- antibacterial activity [14]: no activity
